In patent publication US10689377B2 (Mirati Therapeutics, Inc., priority 2017, dated 2020):

Key:
KRas G12C [1] = target: KRas G12C (Homo sapiens, UniProt P01116, C118S/C51S/C80L/G12C); experiment: KRas G12C Modification Assay (LCMS detection of covalent adduct); format: binding; conditions: normalized percent of control; 5 μM concentration for 3 hours
Method: A 10 μL aliquot of each protein solution was then transferred to a 384 well microtiter plate. Initial compound stocks were generated at fifty times their desired final assay concentration in DMSO.
Exemplary compounds of Formula (I) were diluted 25-fold into K-Ras Assay Buffer to a final of two times their final concentration. A 10 μL aliquot of each diluted compound solution was then added to each of the protein solutions in the microtiter plate to initiate reaction. […] At each time point, the reactions were quenched with 20 μL of a 25 mM acetic acid solution. […] Once all reactions were quenched, the plates were heat sealed and the samples were injected into a LC/MS system for data acquisition.
Samples were injected in their liquid phase onto a C-3 reverse phase column to remove assay buffer and prepare the samples for mass spectrometer. The proteins were eluted from the column using an acetonitrile gradient and fed directly into the mass analyzer. Initial raw data analysis took place in Agilent MassHunter software immediately post data acquisition.
Raw data analysis of the intact protein was exclusively a deconvolution of the multiple charge states of each protein in solution using a maximum entropy deconvolution provided in Mass Hunter. To minimize complexity, only the data over limited mass ranges were considered for analysis, with a minimum of one Dalton mass step intervals. The heights of all masses identified during raw data analysis were exported to be further analyzed in Spotfire® data analysis software.
Final data analysis was a multistep process in the Spotfire® data analysis software package. Briefly, each protein mass was calculated as a percent of the total signal of that sample, that percentage was then normalized to the percentage of signal of the protein in the absence of reactive compounds. Those normalized signals were reported as normalized percent of control (POC). […] Key: “A”≤25% POC; “B”>25% POC-≤50% POC; “C”>50% POC and ND=not determined.

KRas G12C [2] = target: KRas G12C (Homo sapiens, UniProt P01116, G12C); experiment: Cellular inhibition of KRas G12C measured by Phospho-ERK in NCI-H358 cells; format: cell-based; conditions: pERK(Thr202/Tyr204) normalized with GAPDH, NCI-H358 cells, 3 hours; read-out: IC50
Procedure, shortened: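 NCI-H358 cells treated 3 h with compound (0.5% DMSO final), then fixed and methanol-permeabilised. In-cell immunofluorescence measured pERK(Thr202/Tyr204) normalised to GAPDH as percent of DMSO control. IC50 from a 4-parameter dose-response fit.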

Row | Compound | POC (KRas G12C [1]) | IC50 (KRas G12C [2])
1 | C=CC(=O)N1CCN(c2nc(OC[C@@H]3CCCN3C)nc3c2CCN(c2cccc4c2OCC4)C3)C[C@@H]1CC#N [Example 435, 2-((S)-1-acryloyl-4-(7-(2,3-dihydrobenzofuran-7-yl)-2-(((S)-1-methylpyrrolidin-2-yl)methoxy)-5,6,7,8-tetrahydropyrido[3,4-d]pyrimidin-4-yl)piperazin-2-yl)acetonitrile] | C (“C”>50% POC) | 0.1 to 1000 nM
2 | C=CC(=O)N1CCN(c2nc(OC[C@@H]3CCCN3C)nc3c2CCN(c2c(C)c(C)cc4[nH]c(=O)[nH]c24)C3)CC1 [Example 456, 5,6-dimethyl-4-[2-[[(2S)-1-methylpyrrolidin-2-yl]methoxy]-4-(4-prop-2-enoylpiperazin-1-yl)-6,8-dihydro-5H-pyrido[3,4-d]pyrimidin-7-yl]-1,3-dihydrobenzimidazol-2-one] | C (“C”>50% POC) | > 1000 nM
3 | C=CC(=O)N1CCN(c2nc(OC[C@@H]3CCCN3C)nc3c2CCN(c2c(C)c(C)cc4[nH]ncc24)C3)C[C@@H]1CC#N [Example 462, 2-[(2S)-4-[7-(5,6-dimethyl-1H-indazol-4-yl)-2-[[(2S)-1-methylpyrrolidin-2-yl]methoxy]-6,8-dihydro-5H-pyrido[3,4-d]pyrimidin-4-yl]-1-prop-2-enoyl-piperazin-2-yl]acetonitrile] | C (“C”>50% POC) | 0.1 to 1000 nM
4 | C=CC(=O)N1CCN(c2nc(OC[C@@H]3CCCN3C)nc3c2CCN(c2c(C)c(C)cc4[nH]ccc24)C3)C[C@@H]1CC#N [Example 466, 2-((S)-1-acryloyl-4-(7-(5,6-dimethyl-1H-indol-4-yl)-2-(((S)-1-methylpyrrolidin-2-yl)methoxy)-5,6,7,8-tetrahydropyrido[3,4-d]pyrimidin-4-yl)piperazin-2-yl)acetonitrile] | C (“C”>50% POC) | 0.1 to 1000 nM
5 | CN1CCC[C@H]1COc1nc2c(c(N3CCN(C(=O)/C=C/CN4CCC(F)(F)C4)[C@@H](CC#N)C3)n1)CCN(c1cccc(Cl)c1C(F)(F)F)C2 [Example 471, 2-[(2S)-4-[7-[3-chloro-2-(trifluoromethyl)phenyl]-2-[[(2S)-1-methylpyrrolidin-2-yl]methoxy]-6,8-dihydro-5H-pyrido[3,4-d]pyrimidin-4-yl]-1-[(E)-4-(3,3-difluoropyrrolidin-1-yl)but-2-enoyl]piperazin-2-yl]acetonitrile] | C (“C”>50% POC) | > 1000 nM
6 | [2H]C([2H])=C([2H])C(=O)N1CCN(c2nc(OC[C@@H]3CCCN3C)nc3c2CCN(c2cccc4ccccc24)C3)C[C@@H]1CC#N [Example 475, 2-[(2S)-4-[2-[[(2S)-1-methylpyrrolidin-2-yl]methoxy]-7-(1-naphthyl)-6,8-dihydro-5H-pyrido[3,4-d]pyrimidin-4-yl]-1-(2,3,3-trideuterioprop-2-enoyl)piperazin-2-yl]acetonitrile] | C (“C”>50% POC) | 0.1 to 1000 nM
7 | Cc1cccc2cccc(N3CCc4c(nc(OC[C@@H]5CCCN5C)nc4N4CCN(C(=O)/C=C/c5cccnc5)[C@@H](CC#N)C4)C3)c12 [Example 496, 2-((S)-4-(7-(8-methylnaphthalen-1-yl)-2-(((S)-1-methylpyrrolidin-2-yl)methoxy)-5,6,7,8-tetrahydropyrido[3,4-d]pyrimidin-4-yl)-1-((E)-3-(pyridin-3-yl)acryloyl)piperazin-2-yl)acetonitrile] | C (“C”>50% POC) | 0.1 to 1000 nM
8 | Cc1cccc2cccc(N3CCc4c(nc(OC[C@@H]5CC(F)(F)CN5C)nc4N4CCN(C(=O)/C=C/CF)[C@@H](CC#N)C4)C3)c12 [Example 529, 2-((S)-4-(2-(((S)-4,4-difluoro-1-methylpyrrolidin-2-yl)methoxy)-7-(8-methylnaphthalen-1-yl)-5,6,7,8-tetrahydropyrido[3,4-d]pyrimidin-4-yl)-1-((E)-4-fluorobut-2-enoyl)piperazin-2-yl)acetonitrile] | C (“C”>50% POC) | 0.1 to 1000 nM
9 | C=C(F)C(=O)N1CCN(c2nc(OC[C@@H]3CC(F)(F)CN3C)nc3c2CCN(c2cccc4cccc(C)c24)C3)C[C@@H]1CC#N [Example 530, 2-((S)-4-(2-(((S)-4,4-difluoro-1-methylpyrrolidin-2-yl)methoxy)-7-(8-methylnaphthalen-1-yl)-5,6,7,8-tetrahydropyrido[3,4-d]pyrimidin-4-yl)-1-(2-fluoroacryloyl)piperazin-2-yl)acetonitrile] | C (“C”>50% POC) | 0.1 to 1000 nM
10 | C=C(F)C(=O)N1CCN(c2nc(OC[C@@H]3CC(F)(F)CN3C)nc3c2CCN(c2cccc4cccc(Cl)c24)C3)C[C@@H]1CC#N [Example 543] | C (“C”>50% POC) | 0.1 to 1000 nM
11 | COC/C=C/C(=O)N1CCN(c2nc(OC[C@H]3CCCN3C)nc3c2CCN(c2cccc4cccc(C)c24)C3)C[C@@H]1CC#N [Example 554, 2-[(2S)-1-[(E)-4-Methoxybut-2-enoyl]-4-[7-(8-methyl-1-naphthyl)-2-[[(2R)-1-methylpyrrolidin-2-yl]methoxy]-6,8-dihydro-5H-pyrido[3,4-d]pyrimidin-4-yl]piperazin-2-yl] acetonitrile] | C (“C”>50% POC) | 0.1 to 1000 nM
12 | C=C(F)C(=O)N1CCN(c2nc(OC[C@@H]3CCCN3C)nc3c2CCN(c2c(C(F)(F)F)c(C)cc4[nH]ncc24)C3)C[C@@H]1CC#N [Example 555, 2-((S)-1-(2-Fluoroacryloyl)-4-(7-(6-methyl-5-(trifluoromethyl)-1H-indazol-4-yl)-2-(((S)-1-methylpyrrolidin-2-yl)methoxy)-5,6,7,8-tetrahydropyrido [3,4-d]pyrimidin-4-yl)piperazin-2-yl)acetonitrile] | C (“C”>50% POC) | 0.1 to 1000 nM
13 | C=C(F)C(=O)N1CCN(c2nc(OC[C@@H]3CCCN3C)nc3c2CCN(c2cc(O)cc4ccccc24)C3)C[C@@H]1CC#N [Example 556, 2-[(2S)-1-(2-Fluoroprop-2-enoyl)-4-[7-(3-hydroxy-1-naphthyl)-2-[[(2S)-1-methylpyrrolidin-2-yl]methoxy]-6,8-dihydro-5H-pyrido[3,4-d]pyrimidin-4-yl]piperazin-2-yl]acetonitrile] | C (“C”>50% POC) | 0.1 to 1000 nM
14 | C=C(F)C(=O)N1CCN(c2nc(OC[C@H]3C[C@@H](F)CN3C)nc3c2CCN(c2cccc4cccc(Cl)c24)C3)C[C@@H]1CC#N [Example 558, 2-((S)-4-(7-(8-Chloronaphthalen-1-yl)-2-(((2R,4R)-4-fluoro-1-methylpyrrolidin-2-yl)methoxy)-5,6,7,8-tetrahydropyrido[3,4-d]pyrimidin-4-yl)-1-(2-fluoroacryloyl)piperazin-2-yl)acetonitrile] | C (“C”>50% POC) | 0.1 to 1000 nM
15 | C=C(F)C(=O)N1CCN(c2nc(OCCN(C)C)nc3c2CCN(c2cccc4cccc(C)c24)C3)C[C@@H]1CC#N [Example 559, 2-[(2S)-4-[2-[2-(Dimethylamino)ethoxy]-7-(8-methyl-1-naphthyl)-6,8-dihydro-5H-pyrido[3,4-d]pyrimidin-4-yl]-1-(2-fluoroprop-2-enoyl)piperazin-2-yl]acetonitrile] | C (“C”>50% POC) | 0.1 to 1000 nM
16 | C=C(F)C(=O)N1CCN(c2nc(OC[C@@H]3C[C@@H](F)CN3C)nc3c2CCN(c2cccc4cccc(C)c24)C3)C[C@@H]1CC#N [Example 560, 2-[(2S)-4-[2-[[(2S,4R)-4-Fluoro-1-methyl-pyrrolidin-2-yl]methoxy]-7-(8-methyl-1-naphthyl)-6,8-dihydro-5H-pyrido[3,4-d]pyrimidin-4-yl]-1-(2-fluoroprop-2-enoyl)piperazin-2-yl]acetonitrile] | C (“C”>50% POC) | 0.1 to 1000 nM
17 | C=C(F)C(=O)N1CCN(c2nc(OC[C@@H]3C[C@@H](OC)CN3C)nc3c2CCN(c2cccc4cccc(C)c24)C3)C[C@@H]1CC#N [Example 561, 2-[(2S)-1-(2-Fluoroprop-2-enoyl)-4-[2-[[(2S,4R)-4-methoxy-1-methyl-pyrrolidin-2-yl]methoxy]-7-(8-methyl-1-naphthyl)-6,8-dihydro-5H-pyrido[3,4-d]pyrimidin-4-yl]piperazin-2-yl]acetonitrile] | C (“C”>50% POC) | 0.1 to 1000 nM
18 | C=C(F)C(=O)N1CCN(c2nc(OC[C@@H]3CCN(C)C3)nc3c2CCN(c2cccc4cccc(C)c24)C3)C[C@@H]1CC#N [Example 562, 2-[(2S)-1-(2-Fluoroprop-2-enoyl)-4-[7-(8-methyl-1-naphthyl)-2-[[(3R)-1-methylpyrrolidin-3-yl]methoxy]-6,8-dihydro-5H-pyrido[3,4-d]pyrimidin-4-yl]piperazin-2-yl]acetonitrile] | C (“C”>50% POC) | 0.1 to 1000 nM
